# PubChem BioAssay (NCI)
#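 Compound exposure: 48 hours, 5 concentrations, 96-well plates. Definition used: TGI = concentration required for complete inhibition of growth.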
# Columns and labels:
# Test in all cases: NCI tumour cell line growth inhibition, 48 h
# [1] = test system: LOX IMVI melanoma
# [2] = test system: OVCAR-4 ovarian
# [3] = test system: HT29 colon
# [4] = test system: SK-OV-3 ovarian
# [5] = test system: SR leukemia
# [6] = test system: EKVX NSCLC
# [7] = test system: OVCAR-5 ovarian
# [8] = test system: A498 renal
# [9] = test system: MDA-MB-231 breast
# [10] = test system: BT-549 breast
compound,measurement,setting,value
CCC(C)Cn1c(C)nc2c1C(=O)c1ccccc1C2=O (stereo unspecified),TGI,[1],66.7 µM
same,TGI,[2],> 100 µM
same,TGI,[3],> 100 µM
same,TGI,[4],> 100 µM
same,TGI,[5],> 100 µM
same,TGI,[6],> 100 µM
CN(C)CCSc1nccc(-c2ccc(-c3ccnc(SCCN(C)C)n3)s2)n1,TGI,[7],29.4 µM
same,TGI,[1],11.9 µM
same,TGI,[2],16.2 µM
same,TGI,[3],10.3 µM
same,TGI,[8],29.6 µM
same,TGI,[4],47.2 µM
same,TGI,[6],37.4 µM
Cc1nc(C)c(C(=O)NNC(=O)c2ccccc2)cc1C(=O)NNC(=O)c1ccccc1,TGI,[9],> 100 µM
same,TGI,[7],> 100 µM
same,TGI,[1],> 100 µM
same,TGI,[2],> 100 µM
same,TGI,[3],> 100 µM
same,TGI,[8],> 100 µM
same,TGI,[4],> 100 µM
same,TGI,[6],> 10 µM
same,TGI,[10],> 100 µM
COc1ccc(Cn2nc(OCc3ccccc3)c3cc([N+](=O)[O-])ccc32)cc1,TGI,[9],> 100 µM
same,TGI,[7],> 100 µM
same,TGI,[1],> 100 µM
same,TGI,[3],> 100 µM
same,TGI,[8],> 100 µM
same,TGI,[4],> 100 µM
same,TGI,[5],> 100 µM
O=C(OCC(OC(=O)c1ccccc1)C1CC(C(O)C2CCCCC2)C(=O)O1)c1ccccc1 (stereo unspecified),TGI,[9],> 100 µM
same,TGI,[7],> 100 µM
same,TGI,[1],> 100 µM
same,TGI,[2],> 100 µM
same,TGI,[8],> 100 µM
same,TGI,[4],> 100 µM
same,TGI,[5],44.8 µM
same,TGI,[6],> 100 µM
same,TGI,[10],> 100 µM
C=C1CC2C[C@H](OS(=O)(=O)c3ccc(C)cc3)C(C1)N2C (stereo partly specified),TGI,[9],> 100 µM
same,TGI,[1],> 100 µM
same,TGI,[2],> 100 µM
same,TGI,[3],> 100 µM
same,TGI,[4],> 100 µM
same,TGI,[5],> 100 µM
same,TGI,[6],> 100 µM
same,TGI,[10],> 100 µM
CCCCCC(=O)OCC1(CO)C/C(=C/CC(C(C)C)C(C)C)C(=O)O1 (stereo unspecified),TGI,[9],> 75 µM
same,TGI,[7],> 75 µM
same,TGI,[1],20.5 µM
same,TGI,[2],> 75 µM
same,TGI,[3],> 75 µM
same,TGI,[8],> 75 µM
same,TGI,[4],> 75 µM
same,TGI,[6],> 75 µM
same,TGI,[10],> 75 µM
Cn1c(-c2cccs2)cc(-c2ccsc2)c1-c1ccsc1,TGI,[9],> 100 µM
same,TGI,[7],> 100 µM
same,TGI,[2],> 100 µM
same,TGI,[3],> 100 µM
same,TGI,[8],> 100 µM
same,TGI,[4],> 100 µM
same,TGI,[5],> 100 µM
same,TGI,[6],> 100 µM
same,TGI,[10],> 100 µM
CC1[C@@H]2C[C@@H]3O[C@@]34[C@H]3CCC5Cc6nc7c(nc6C[C@@]5(C)C3(O)CC(=O)[C@@]24CO[C@]12OC(C)(C)CC2O)CC1CC[C@@H]2C3=C[C@H]4O[C@@]5(O[C@@](C)(CO)C[C@@H]5O)C(C)[C@@]4(O)[C@]3(C)[C@@H](O)CC2[C@]1(C)C7 (stereo partly specified),TGI,[7],0.218 µM
same,TGI,[1],> 3.52 µM
same,TGI,[2],> 3.52 µM
same,TGI,[3],0.0945 µM
same,TGI,[8],0.0643 µM
same,TGI,[4],0.231 µM
same,TGI,[6],1.03 µM
Cc1cccc2c1C(=O)/C(=C/c1ccccc1C(=O)O)C2,TGI,[7],> 100 µM
same,TGI,[1],> 100 µM
same,TGI,[2],> 100 µM
same,TGI,[3],> 100 µM
same,TGI,[8],> 100 µM
same,TGI,[6],> 100 µM
same,TGI,[10],> 100 µM
CC1C/C(=C\c2ccc(O)c(O)c2)C(=O)/C(=C/c2ccc(O)c(O)c2)C1 (stereo unspecified),TGI,[9],43.4 µM
same,TGI,[7],32.8 µM
same,TGI,[1],23.4 µM
same,TGI,[2],34.1 µM
same,TGI,[3],34.2 µM
same,TGI,[8],12.8 µM
same,TGI,[4],53.1 µM
same,TGI,[5],14 µM
same,TGI,[6],30.1 µM
O=S1(=O)OCCOS(=O)(=O)C1S(=O)(=O)c1cccc2ccccc12,TGI,[9],> 100 µM
same,TGI,[7],> 100 µM
same,TGI,[1],> 100 µM
same,TGI,[2],> 100 µM
same,TGI,[3],> 100 µM
same,TGI,[5],> 100 µM
same,TGI,[6],> 100 µM
same,TGI,[10],> 100 µM
CC(=O)c1nc(C#N)c(N)o1,TGI,[9],> 100 µM
same,TGI,[7],> 100 µM
same,TGI,[1],> 100 µM
same,TGI,[2],> 100 µM
same,TGI,[3],> 100 µM
same,TGI,[8],> 100 µM
same,TGI,[4],> 100 µM
same,TGI,[6],> 100 µM
Clc1ccc(C2=NNC(c3cccc(Cl)c3)C2)cc1 (stereo unspecified),TGI,[9],55.1 µM
same,TGI,[7],> 100 µM
same,TGI,[1],33.7 µM
same,TGI,[2],> 100 µM
same,TGI,[3],> 100 µM
same,TGI,[8],45 µM
same,TGI,[4],78.1 µM
same,TGI,[5],> 100 µM
same,TGI,[6],> 100 µM
Nc1nn2cc(-c3ccccc3)[n+](CC(=O)c3ccccc3)c2s1,TGI,[9],> 100 µM
same,TGI,[7],53.6 µM
same,TGI,[1],35.4 µM
same,TGI,[3],> 100 µM
same,TGI,[8],> 100 µM
same,TGI,[4],> 100 µM
same,TGI,[5],48 µM
same,TGI,[6],> 100 µM
same,TGI,[10],40.5 µM
Cc1cccc(-c2cc(=O)c3cc(C)cnc3[nH]2)c1,TGI,[7],> 100 µM
same,TGI,[1],> 100 µM
same,TGI,[2],> 100 µM
same,TGI,[8],> 24.2 µM
same,TGI,[4],> 29.6 µM
same,TGI,[5],1.7 µM
same,TGI,[6],> 100 µM
same,TGI,[10],> 58.3 µM
C[S+](C)C1(c2ccccc2)C(=O)c2ccccc2C1=O,TGI,[7],> 89.7 µM
same,TGI,[1],> 72.7 µM
same,TGI,[2],> 100 µM
same,TGI,[3],> 100 µM
same,TGI,[8],> 100 µM
same,TGI,[4],> 100 µM
same,TGI,[5],> 100 µM
same,TGI,[6],76.9 µM
same,TGI,[10],35.6 µM
S=C1NNC(=S)NN1,TGI,[9],> 1 µM
same,TGI,[1],0.328 µM
same,TGI,[2],> 1 µM
same,TGI,[3],> 1 µM
same,TGI,[8],> 1 µM
same,TGI,[4],> 1 µM
same,TGI,[5],0.671 µM
same,TGI,[6],> 1 µM
same,TGI,[10],> 1 µM
NS(=O)(=O)c1ccc(NS(=O)(=O)c2ccc(NC(=O)N(c3ccccc3)c3ccccc3)cc2)cc1,TGI,[9],> 100 µM
same,TGI,[7],> 100 µM
same,TGI,[1],> 100 µM
same,TGI,[2],> 100 µM
same,TGI,[3],> 100 µM
same,TGI,[8],> 100 µM
same,TGI,[6],> 100 µM
same,TGI,[10],> 100 µM
c1ccc(C2C3=C(CCCC3)Nc3nnnn32)cc1 (stereo unspecified),TGI,[9],> 100 µM
same,TGI,[7],> 100 µM
same,TGI,[1],> 100 µM
same,TGI,[8],> 100 µM
same,TGI,[4],> 100 µM
same,TGI,[5],> 100 µM
same,TGI,[10],98.4 µM
O=C1CSC2=NC3=C(COC/C3=C\c3ccc(F)cc3)C(c3ccc(F)cc3)N12 (stereo unspecified),TGI,[9],> 100 µM
same,TGI,[7],> 100 µM
same,TGI,[1],> 100 µM
same,TGI,[2],> 100 µM
same,TGI,[8],> 100 µM
same,TGI,[4],> 100 µM
same,TGI,[5],> 100 µM
same,TGI,[6],> 100 µM
same,TGI,[10],> 100 µM
CC1=CCC(=O)[C@]2(C)C(CC(=O)O)[C@]3(C)C4=C(C)C(c5ccoc5)C[C@@H]4O[C@@H]3[C@H](O)[C@@H]12 (stereo partly specified),TGI,[9],> 100 µM
same,TGI,[7],> 100 µM
same,TGI,[1],> 100 µM
same,TGI,[2],> 100 µM
same,TGI,[8],> 100 µM
same,TGI,[4],> 100 µM
same,TGI,[6],> 100 µM
same,TGI,[10],> 100 µM
O=C(c1cccs1)N(C(=O)N1CCCCC1)c1ccccc1,TGI,[9],> 100 µM
same,TGI,[1],> 100 µM
same,TGI,[3],> 100 µM
same,TGI,[8],> 100 µM
same,TGI,[4],> 100 µM
same,TGI,[6],> 100 µM
same,TGI,[10],> 100 µM
